Read-outs that look alike come from different tables or passages of the source.
What was measured:
[1] = Carrageenan Pleurisy Assay (CPA), acute anti-inflammatory activity; type: in vivo; details: po, read-out: ED50, dose required to reduce the 3 hour exudate volume by 50%
Source text: Following the procedure described by Vinegar et al., in Proc. Soc. […] There were 5 animals in each drug-treated group and the control group.

[2] = tested on: 51Cr-labelled EL4 cells; test: Assay of lymphocyte mediated cytolysis (LMC) in vitro; type: cell-based; details: for % lysis Reduction: in presence of ADA inhibitor EHNA 7.9 µM
Method: The test compounds were assayed in vitro by the method described in Science, (N.Y.), 187, 957 (1975). The order of addition of reagents was (1) cytotoxic lymphocytes; (2) tests compound dissolved in pyrogen-free saline; (3) ^51Cr-labelled EL4 cells. In those experiments where an adenosine deaminase (ADA) inhibitor was required erthro-9-(2-hydroxy-3-nonyl)adenine (EHNA) was added before step (2) to give a final concentration of 7.9 µM.

[3] = Antipyretic and analgesic activity; details: in vivo
[4] = tested on: chromium-labelled heterologous (sheep) erthrocytes target cells coated with mouse anti-sheep erythrocyte serum; test: Antibody-Dependent Cellular Cytotoxicity assay in vitro; type: cell-based
Method: The title compound was tested in vitro in Antibody-Dependent Cellular Cytotoxicity assay [Perlmann, P. and Holm, G., Adv. Immunol., 11, 117, (1969)]. Mouse spleen cells from non-immunized animals served as the source of effector cells, assayed with chromium-labelled heterologous (sheep) erthrocytes target cells coated with mouse anti-sheep erythrocyte serum. The final concentration of the anti-serum in the incubation mixture was 1:66, the ratio of effector to target cells 25:1.

[5] = tested on: lipoxgenase or cyclooxygenase pathway; test: Inhibition of prostaglandin metabolism in vitro; type: biochemical
[6] = Solubility in water; type: physicochemical
[7] = Duration of action and half life; details: in vivo
[8] = Toxicity in animal models: liver damage, therapeutic index
[9] = Mus musculus, EL4, read-out: % lysis Reduction

`C[C@]12CCC(=O)C=C1CC[C@@H]1[C@@H]2[C@@H](O)C[C@@]2(C)[C@H]1CC[C@]2(O)C(=O)CO` [Hydrocortisone] showed an ED50 ([1]; 3 h) of 14 ± 10.2 mg/kg.

In the case of `C[C@]12C=CC(=O)C=C1CC[C@@H]1[C@@H]2[C@@H](O)C[C@@]2(C)[C@H]1CC[C@]2(O)C(=O)CO` [Prednisolone], the ED50 ([1]; 3 h) is reported as 3 ± 0.5 mg/kg.

In the case of `Nc1nc(Cl)nc2c1ncn2[C@@H]1O[C@H](CO)[C@@H](O)[C@H]1O` [2-Chloro-adenosine], the inhibition at 4.7 µM [2, 9] is reported as 62.2% and the inhibition at 9.4 µM [2, 9] is reported as 64.4%.

In the case of `Nc1nccc2c1ncn2[C@H]1C[C@H](O)[C@@H](CO)O1` [4-amino-1-(2-deoxy-β-D-ribofuranosyl)-1H-imidazo-[4,5-c]-pyridine], the “analgesic activity per se” value [3] is reported as “no analgesic activity”, the antipyretic activity [3] is reported as “not antipyretic” and the inhibition at 100 µM ([4]; 100 µM, 4 hours of incubation at 37 °C, effector to target cells 25:1, read-out: inhibition of target cell-specific chromium release) is reported as 83.2%. It also gave an inhibition at 3.1 µM ([4]; 4 h) of 31.2%, an inhibition at 6.2 µM ([4]; 4 h) of 42.1% and an inhibition at 12.5 µM ([4]; 4 h) of 55.9%. The inhibition at 25 µM ([4]; 4 h, Dose 25.0 μM) was 60.2%, the IC50 ([4]; dose-response study) was 6.2 to 12.5 µM and the “inhibition of prostaglandin metabolism” value [5] was “does not inhibit”. The solubility in water [6] was “highly soluble in water”, the inhibition at 18.8 µM ([2]; Mus musculus, EL4, Conc. 18.8 µM, read-out: % lysis Reduction) was 53% and the inhibition at 37.5 µM ([2]; Mus musculus, EL4, Conc. 37.5 µM, read-out: % lysis Reduction) was 73%. For the same compound, the “inhibition of lymphocyte mediated cytolysis” value ([2]; summary statement) was “potent inhibitor”, the duration of action [7] was “about 15 hours” and the half life [7] was “short”. For the same compound, the ED50 ([1]; 3 hr. vol. p.o., mg/kg of body weight) was 12 mg/kg, the liver damage ([8]; in the animal models used) was “does not cause liver damage” and the therapeutic index ([8]; in vivo) was “high”.

For `Nc1ncnc2c1ncn2[C@@H]1O[C@H](CO)[C@@H](O)[C@H]1O` [Adenosine], the “% lysis Reduction” value ([2]; Conc. 9.4 µM) was 59% and the “% lysis Reduction” value ([2]; Conc. 18.8 µM) was 59%.

Compound `CC(=O)Oc1ccccc1C(=O)O` [Aspirin] has an ED50 ([1]; 3 h) of 28 ± 3.2 mg/kg.

Work on `Nc1nccc2c1ncn2[C@@H]1O[C@H](CO)[C@@H](O)[C@H]1O` [(4-amino-1-β-D-ribofur-anosyl-1H-imidazo-[4,5-c]-pyridine, reference compound] yielded an inhibition at 3.1 µM ([4]; 4 h) of 52.3%, an inhibition at 6.2 µM ([4]; 4 h) of 64.8% and an inhibition at 12.5 µM ([4]; 4 h) of 66.4%.

For `Nc1nc(F)nc2c1ncn2[C@@H]1O[C@H](CO)[C@@H](O)[C@H]1O` [2-Fluoro-adenosine], the inhibition at 1 µM [2, 9] was 48.9% and the inhibition at 2 µM [2, 9] was 60%.

Reference: patent EP0038569A2, “Deazapurine nucleosides, formulations and preparation thereof” (THE WELLCOME FOUNDATION LIMITED, priority 1980, dated 1981)
